Here are results for two compounds from publication PMC9192788, “Identification of a D-galacturonate reductase efficiently using NADH as a cofactor” (Biotechnology Reports, 2022).

Assay [1] deals with T1, Gaa1 (E. gracilis D-galacturonate reductase).
T1 construct: full-length 420 aa, C-terminal 6xHis tag kept, synthetic codon-optimized gene expressed in S. cerevisiae, IMAC purified, ~45 kDa; primer-encoded N-terminus MVDVLMVGT
Put plainly: reverse reaction with NADP. It counts as biochemical, Euglena gracilis. Conditions: 1 mM NADP, 0.1 M Na-phosphate pH 7, 30°C. An excerpt: reverse reaction with NADP on Gaa1 (E. gracilis D-galacturonate reductase)

For assay [2] the test system is unchanged. As to the kind of experiment: NAD(P)H oxidation, absorbance at […] nm. Conditions: 1 mM NADPH, 0.1 M Na-phosphate pH 7, 30°C. The format is biochemical, Euglena gracilis.

The structures appear in SMILES notation.

As to `O=C(O)[C@@H](O)[C@H](O)[C@H](O)[C@@H](O)CO` [L-galA, L-galactonate], in assay [1], the Km came out at 700 µM.
With `O=C(O)[C@H]1OC(O)[C@H](O)[C@@H](O)[C@H]1O` (stereo partly drawn) [GalUA, D-galacturonate], the Km in assay [2] was 300 µM.
